Test results as given in the CheMixHub viscosity set.

Assay: xn = mol fraction of the nth substance listed

O=C(O)C=Cc1ccccc1 + CO
viscosity [mPa·s]
Details | 308.15 K | 313.15 K | 318.15 K | 323.15 K
101 kPa, x1 = 0.075 | 0.8921 | – | – | 0.7246
101 kPa, x1 = 0.084 | 0.9758 | – | – | 0.7679
101 kPa, x1 = 0.0887 | 1.014 | – | – | 0.797
101 kPa, x1 = 0.0981 | 1.092 | – | – | 0.846
101.33 kPa, x1 = 0.075 | 0.891 | 0.8453 | 0.7855 | 0.7246
101.33 kPa, x1 = 0.0981 | 1.092 | 1.003 | 0.9163 | 0.846

CCCCCCCO + COC(=O)OC
Details | viscosity [mPa·s]
293.15 K, 101 kPa, x2 = 0.04189 | 6.005
293.15 K, 101 kPa, x2 = 0.08197 | 5.163
293.15 K, 101 kPa, x2 = 0.1998 | 3.52
293.15 K, 101 kPa, x2 = 0.2986 | 2.615
293.15 K, 101 kPa, x2 = 0.4163 | 1.928
293.15 K, 101 kPa, x2 = 0.482 | 1.64
293.15 K, 101 kPa, x2 = 0.6031 | 1.231
293.15 K, 101 kPa, x2 = 0.7204 | 0.956
293.15 K, 101 kPa, x2 = 0.7985 | 0.818
293.15 K, 101 kPa, x2 = 0.9076 | 0.691
293.15 K, 101 kPa, x2 = 0.9573 | 0.661
303.15 K, 100 kPa, x2 = 0.0999 | 3.588
303.15 K, 100 kPa, x2 = 0.2 | 2.668
303.15 K, 100 kPa, x2 = 0.3001 | 2.033
303.15 K, 100 kPa, x2 = 0.4 | 1.59
303.15 K, 100 kPa, x2 = 0.5001 | 1.275
303.15 K, 100 kPa, x2 = 0.6 | 1.061
303.15 K, 100 kPa, x2 = 0.7 | 0.869
303.15 K, 100 kPa, x2 = 0.8 | 0.707
303.15 K, 100 kPa, x2 = 0.8999 | 0.609
303.15 K, 101 kPa, x2 = 0.06371 | 4.012
303.15 K, 101 kPa, x2 = 0.1014 | 3.549
303.15 K, 101 kPa, x2 = 0.2001 | 2.661
303.15 K, 101 kPa, x2 = 0.2928 | 2.07
303.15 K, 101 kPa, x2 = 0.4019 | 1.583
303.15 K, 101 kPa, x2 = 0.4949 | 1.282
303.15 K, 101 kPa, x2 = 0.5788 | 1.071
303.15 K, 101 kPa, x2 = 0.715 | 0.817
303.15 K, 101 kPa, x2 = 0.7902 | 0.719
303.15 K, 101 kPa, x2 = 0.9063 | 0.607
303.15 K, 101 kPa, x2 = 0.9354 | 0.584
308.15 K, 100 kPa, x2 = 0.0999 | 3.119
308.15 K, 100 kPa, x2 = 0.2 | 2.351
308.15 K, 100 kPa, x2 = 0.3001 | 1.809
308.15 K, 100 kPa, x2 = 0.4 | 1.434
308.15 K, 100 kPa, x2 = 0.5001 | 1.149
308.15 K, 100 kPa, x2 = 0.6 | 0.964
308.15 K, 100 kPa, x2 = 0.7 | 0.789
308.15 K, 100 kPa, x2 = 0.8 | 0.66
308.15 K, 100 kPa, x2 = 0.8999 | 0.57
313.15 K, 100 kPa, x2 = 0.0999 | 2.725
313.15 K, 100 kPa, x2 = 0.2 | 2.077
313.15 K, 100 kPa, x2 = 0.3001 | 1.616
313.15 K, 100 kPa, x2 = 0.4 | 1.288
313.15 K, 100 kPa, x2 = 0.5001 | 1.049
313.15 K, 100 kPa, x2 = 0.6 | 0.875
313.15 K, 100 kPa, x2 = 0.7 | 0.73
313.15 K, 100 kPa, x2 = 0.8 | 0.612
313.15 K, 100 kPa, x2 = 0.8999 | 0.536
313.15 K, 101 kPa, x2 = 0.04009 | 3.253
313.15 K, 101 kPa, x2 = 0.09588 | 2.743
313.15 K, 101 kPa, x2 = 0.2155 | 1.974
313.15 K, 101 kPa, x2 = 0.3104 | 1.571
313.15 K, 101 kPa, x2 = 0.4052 | 1.267
313.15 K, 101 kPa, x2 = 0.4938 | 1.054
313.15 K, 101 kPa, x2 = 0.5968 | 0.859
313.15 K, 101 kPa, x2 = 0.7024 | 0.709
313.15 K, 101 kPa, x2 = 0.7953 | 0.613
313.15 K, 101 kPa, x2 = 0.9018 | 0.535
313.15 K, 101 kPa, x2 = 0.9477 | 0.509
318.15 K, 100 kPa, x2 = 0.0999 | 2.392
318.15 K, 100 kPa, x2 = 0.2 | 1.847
318.15 K, 100 kPa, x2 = 0.3001 | 1.454
318.15 K, 100 kPa, x2 = 0.4 | 1.171
318.15 K, 100 kPa, x2 = 0.5001 | 0.961
318.15 K, 100 kPa, x2 = 0.6 | 0.809
318.15 K, 100 kPa, x2 = 0.7 | 0.683
318.15 K, 100 kPa, x2 = 0.8 | 0.573
318.15 K, 100 kPa, x2 = 0.8999 | 0.504
323.15 K, 100 kPa, x2 = 0.0999 | 2.113
323.15 K, 100 kPa, x2 = 0.2 | 1.651
323.15 K, 100 kPa, x2 = 0.3001 | 1.31
323.15 K, 100 kPa, x2 = 0.4 | 1.068
323.15 K, 100 kPa, x2 = 0.5001 | 0.885
323.15 K, 100 kPa, x2 = 0.6 | 0.738
323.15 K, 100 kPa, x2 = 0.7 | 0.638
323.15 K, 100 kPa, x2 = 0.8 | 0.539
323.15 K, 100 kPa, x2 = 0.8999 | 0.476
